# According to patent US20050019425A1, “Composition and method” (priority 2001, published 2005):
# What was measured:
# [1] = Clinical signs, food intake, body weight, blood and thyroid hormone measurements in dogs during the 24-week feeding study; type: in vivo, dog (Beagle); details: diets with 0 to 5 mg added selenium/kg, study period 24 weeks
# Experimental: (§1) Study Design: Thirty-six adult dogs are divided into six groups of six dogs in each group based on their age, gender and body condition score so that the averages of those three criteria are similar among groups. All dogs are given the basal diet for three weeks (pre-treatment period) before they are allocated to one of the experimental diets. The third week of the pre-treatment period is considered as week 0 of the study. Hair growth is measured in weeks 0, 11 and 22 of the study using the method described below. Dogs are fed with the experimental diets for 24 weeks.
# (§2) A torula yeast basal diet is used. The basal diet is nutritionally complete and balanced for an adult dog except for selenium. Different amounts of selenium (as selenomethionine) are added into the basal diet to form six experimental diets which contain 0, 0.05, 0.1, 0.5, 1 or 5 mg selenium/kg diet dry matter, respectively. Selenium concentrations in the experimental diets are confirmed by chemical analyses. The analyzed dietary selenium concentrations were 0.034, 0.085, 0.123, 0.527, 1.025 and 5.045 mg/kg dry matter, respectively.
# [2] = system: Hair growth of Beagles; test: Hair growth measurement in adult beagles fed diets with various levels of selenium; type: in vivo, dog (Beagle)
# From the text: Adult beagles of both male and females are used. They are between 1.2 and 3.7 years of age at the start of the experiment.
# as §1, §2
# Hair Growth Measurement: Hairs in an area of […] on the left side of the body above the hind leg and about 3 cm away from the spinal are clipped with an electronic clipper (Oster Pro™ Model 78400-01A, blade size: 40.1 mm, Oster Elite™). The hair is cut as close to the skin as possible. A tattoo dot of about 1 mm in diameter is made in the center of the clipped area using a tattoo marker (Spaulding Special Electric Tattoo Marker, Model SSEMK). Hair growth is measured by taking photographs from the same clipped area twice using the tattoo dot as a marker. The first photograph is taken right after the clipping and the second photograph four days later. A Polaroid close-up camera (CU-5) and Polaroid 665 films are used to take photographs. A glass slide is attached to the front frame of the camera to press hairs to the skin to minimize errors caused by the angle formed between standing hair and the skin. The image is magnified three times by the camera. Same exposure conditions are used for all dogs in the study. On each day of photograph shooting, a photograph is also taken of a ruler with clear markers under the same conditions and serves as a reference. After exposure, both prints and negatives of the films are treated according to the use directions. The negative films provide sharp and clear images of hairs and are used for hair growth measurement. The negative films are scanned (EPSON Expression 836XL) into a computer. Afterwards, the length of primary hairs in the film is measured using an image analyzing software (BioScan Optimas). The difference of the average hair lengths between the first and the second photographs from the same dog is the hair growth during the four-day period.
smiles,measurement,setting,value
"C[Se]CC[C@H](N)C(=O)O [selenium, selenomethionine]",Average food intake and body weights,[1],not affected by the dietary treatments
same,"Blood CBC and chemistry measurements, serum total thyroxine and 3,5,3'-triiodothyronine",[1],within the normal ranges
same,Hair growth,"[2]; dietary Se 0.034 mg/kg dry matter (0 added), Week 0 (pre-treatment, basal diet)",0.21 mm/day
same,Hair growth,"[2]; dietary Se 0.034 mg/kg dry matter (0 added), Week 11",0.12 mm/day
same,Hair growth,"[2]; dietary Se 0.034 mg/kg dry matter (0 added), Week 22",0.12 mm/day
same,Hair growth,"[2]; dietary Se 0.085 mg/kg dry matter (0.05 added), Week 0 (pre-treatment, basal diet)",0.18 mm/day
same,Hair growth,"[2]; dietary Se 0.085 mg/kg dry matter (0.05 added), Week 11",0.15 mm/day
same,Hair growth,"[2]; dietary Se 0.085 mg/kg dry matter (0.05 added), Week 22",0.11 mm/day
same,Hair growth,"[2]; dietary Se 0.123 mg/kg dry matter (0.1 added), Week 0 (pre-treatment, basal diet)",0.13 mm/day
same,Hair growth,"[2]; dietary Se 0.123 mg/kg dry matter (0.1 added), Week 11",0.26 mm/day
same,Hair growth,"[2]; dietary Se 0.123 mg/kg dry matter (0.1 added), Week 22",0.20 mm/day
same,Hair growth,"[2]; dietary Se 0.527 mg/kg dry matter (0.5 added), Week 0 (pre-treatment, basal diet)",0.15 mm/day
same,Hair growth,"[2]; dietary Se 0.527 mg/kg dry matter (0.5 added), Week 11",0.22 mm/day
same,Hair growth,"[2]; dietary Se 0.527 mg/kg dry matter (0.5 added), Week 22",0.23 mm/day
same,Hair growth,"[2]; dietary Se 1.025 mg/kg dry matter (1 added), Week 0 (pre-treatment, basal diet)",0.18 mm/day
same,Hair growth,"[2]; dietary Se 1.025 mg/kg dry matter (1 added), Week 11",0.26 mm/day
same,Hair growth,"[2]; dietary Se 1.025 mg/kg dry matter (1 added), Week 22",0.20 mm/day
same,Hair growth,"[2]; dietary Se 5.045 mg/kg dry matter (5 added), Week 0 (pre-treatment, basal diet)",0.20 mm/day
same,Hair growth,"[2]; dietary Se 5.045 mg/kg dry matter (5 added), Week 11",0.14 mm/day
same,Hair growth,"[2]; dietary Se 5.045 mg/kg dry matter (5 added), Week 22",0.13 mm/day
same,Effect on hair growth of dogs (conclusion),[2]; dietary selenium concentrations from 0.1 to about 4.5 mg selenium/kg diet,maximize hair growth of dogs
same,Rate of hair growth compared between diet groups,"[2]; diets containing 0.1, 0.5 or 1 mg selenium/kg vs 0, 0.05 or 5 mg selenium/kg, week 11 and 22",significantly (p<0.05) higher rate of hair growth
same,Difference in hair growth among groups,[2]; week 0 (pre-treatment),no difference in hair growth among groups
